Experimental data: the NIST ThermoML archive (doi:10.1021/je060271a)
Several values for one entry are separate records, joined by “and”; a condition that tells them apart may be missing. Equal values may be shown once. Numbers after ± are expanded uncertainties.

Conditions: 283.15 K, Liquid, Vibrating tube method

CCCCCC(=O)OCC(COC(=O)CCCCC)(COC(=O)CCCCC)COC(=O)CCCCC [pentaerythritol tetrahexanoate]
Conditions	mass density
5731.2 kPa	1007.5 ± 1.2 kg/m3
5738.3 kPa	1007.6 ± 1.2 kg/m3
5746.2 kPa	1007.4 ± 1.2 kg/m3
5753.3 kPa	1007.5 ± 1.2 kg/m3
5760 kPa	1007.4 ± 1.2 kg/m3
5767.3 kPa	1007.5 ± 1.2 kg/m3
5775.5 kPa	1007.5 ± 1.2 kg/m3
5783.9 kPa	1007.6 ± 1.2 kg/m3
5790.7 kPa	1007.4 ± 1.2 kg/m3
5797.8 kPa	1007.5 ± 1.2 kg/m3
5804.7 kPa	1007.5 ± 1.2 kg/m3
5812.8 kPa	1007.6 ± 1.2 kg/m3
5819.9 kPa	1007.5 ± 1.2 kg/m3
5826.8 kPa	1007.5 ± 1.2 kg/m3
5833.7 kPa	1007.4 ± 1.2 kg/m3
5842.2 kPa	1007.5 ± 1.2 kg/m3
5849.3 kPa	1007.5 ± 1.2 kg/m3
5856.6 kPa	1007.5 ± 1.2 kg/m3
5863.6 kPa	1007.7 ± 1.2 kg/m3
5872 kPa	1007.5 ± 1.2 kg/m3
5878.9 kPa	1007.5 ± 1.2 kg/m3
5885.8 kPa	1007.5 ± 1.2 kg/m3
5894.4 kPa	1007.7 ± 1.2 kg/m3
5901.3 kPa	1007.5 ± 1.2 kg/m3
5908.3 kPa	1007.6 ± 1.2 kg/m3
5915.7 kPa	1007.5 ± 1.2 kg/m3
5924.3 kPa	1007.6 ± 1.2 kg/m3
5930 kPa	1007.7 ± 1.2 kg/m3
5935.7 kPa	1007.7 ± 1.2 kg/m3
5942.8 kPa	1007.6 ± 1.2 kg/m3
5953 kPa	1007.5 ± 1.2 kg/m3
5960.1 kPa	1007.6 ± 1.2 kg/m3
5968.6 kPa	1007.6 ± 1.2 kg/m3
5976.4 kPa	1007.6 ± 1.2 kg/m3
5984.7 kPa	1007.6 ± 1.2 kg/m3
5991.9 kPa	1007.6 ± 1.2 kg/m3
5999.2 kPa	1007.7 ± 1.2 kg/m3
6006.6 kPa	1007.7 ± 1.2 kg/m3
6015.4 kPa	1007.6 ± 1.2 kg/m3
6022.9 kPa	1007.7 ± 1.2 kg/m3
6030.1 kPa	1007.6 ± 1.2 kg/m3
6038.8 kPa	1007.8 ± 1.2 kg/m3
6046 kPa	1007.6 ± 1.2 kg/m3
6053.1 kPa	1007.6 ± 1.2 kg/m3
6061.9 kPa	1007.7 ± 1.2 kg/m3
6069.2 kPa	1007.6 ± 1.2 kg/m3
6076.6 kPa	1007.8 ± 1.2 kg/m3
6084.1 kPa	1007.7 ± 1.2 kg/m3
6092.7 kPa	1007.8 ± 1.2 kg/m3
6100.3 kPa	1007.7 ± 1.2 kg/m3
6107.6 kPa	1007.6 ± 1.2 kg/m3
6115.2 kPa	1007.6 ± 1.2 kg/m3
6124 kPa	1007.8 ± 1.2 kg/m3
6131.6 kPa	1007.7 ± 1.2 kg/m3
6139 kPa	1007.7 ± 1.2 kg/m3
6146.6 kPa	1007.7 ± 1.2 kg/m3
6155.4 kPa	1007.7 ± 1.2 kg/m3
6163 kPa	1007.7 ± 1.2 kg/m3
6170.1 kPa	1007.8 ± 1.2 kg/m3
6179.1 kPa	1007.7 ± 1.2 kg/m3
6186.9 kPa	1007.6 ± 1.2 kg/m3
6194.5 kPa	1007.8 ± 1.2 kg/m3
6202.1 kPa	1007.8 ± 1.2 kg/m3
6209.7 kPa	1007.9 ± 1.2 kg/m3
6218.9 kPa	1007.8 ± 1.2 kg/m3
6226.1 kPa	1007.8 ± 1.2 kg/m3
6233.7 kPa	1007.8 ± 1.2 kg/m3
6242.7 kPa	1007.8 ± 1.2 kg/m3
6250.3 kPa	1007.9 ± 1.2 kg/m3
6257.9 kPa	1007.8 ± 1.2 kg/m3
6265.5 kPa	1007.8 ± 1.2 kg/m3
6274.9 kPa	1007.7 ± 1.2 kg/m3
6282.3 kPa	1007.9 ± 1.2 kg/m3
6290.1 kPa	1007.8 ± 1.2 kg/m3
6299.1 kPa	1007.7 ± 1.2 kg/m3
6306.5 kPa	1007.9 ± 1.2 kg/m3
6314.3 kPa	1007.8 ± 1.2 kg/m3
6323.1 kPa	1007.8 ± 1.2 kg/m3
6330.4 kPa	1007.8 ± 1.2 kg/m3
6338.1 kPa	1007.8 ± 1.2 kg/m3
6346.1 kPa	1007.8 ± 1.2 kg/m3
6355.4 kPa	1007.9 ± 1.2 kg/m3
6362.3 kPa	1007.8 ± 1.2 kg/m3
6369.9 kPa	1007.8 ± 1.2 kg/m3
6377.7 kPa	1007.8 ± 1.2 kg/m3
6386.6 kPa	1007.9 ± 1.2 kg/m3
6394.2 kPa	1007.9 ± 1.3 kg/m3
6401.7 kPa	1007.9 ± 1.2 kg/m3
6409.5 kPa	1007.9 ± 1.2 kg/m3
6418.4 kPa	1007.9 ± 1.2 kg/m3
6426 kPa	1007.9 ± 1.2 kg/m3
6433.3 kPa	1007.9 ± 1.2 kg/m3
6442.5 kPa	1007.9 ± 1.2 kg/m3
6450.4 kPa	1007.9 ± 1.2 kg/m3
6458.4 kPa	1007.9 ± 1.2 kg/m3
6466.9 kPa	1007.9 ± 1.2 kg/m3
6474.6 kPa	1007.9 ± 1.2 kg/m3
6481.9 kPa	1008 ± 1.2 kg/m3
6491.1 kPa	1007.8 ± 1.2 kg/m3
6498.3 kPa	1008 ± 1.2 kg/m3
6505.6 kPa	1008 ± 1.2 kg/m3
6514.4 kPa	1007.8 ± 1.2 kg/m3
6522 kPa	1007.9 ± 1.2 kg/m3
6529.2 kPa	1007.9 ± 1.2 kg/m3
6536.7 kPa	1008 ± 1.2 kg/m3
6545 kPa	1008 ± 1.2 kg/m3
6552.2 kPa	1007.9 ± 1.2 kg/m3
6559.5 kPa	1008.1 ± 1.2 kg/m3
6566.4 kPa	1007.9 ± 1.2 kg/m3
6573.6 kPa	1008 ± 1.2 kg/m3
6578.7 kPa	1007.9 ± 1.2 kg/m3
6583 kPa	1008 ± 1.2 kg/m3
6587.1 kPa	1008 ± 1.2 kg/m3
6592.1 kPa	1007.9 ± 1.2 kg/m3
6596.3 kPa	1008 ± 1.2 kg/m3
6600.4 kPa	1008.1 ± 1.2 kg/m3
6605.4 kPa	1007.9 ± 1.2 kg/m3
6609.2 kPa	1007.9 ± 1.2 kg/m3
6613.4 kPa	1007.9 ± 1.2 kg/m3
6635.7 kPa	1008 ± 1.2 kg/m3
6640 kPa	1008 ± 1.2 kg/m3
6644.1 kPa	1008.1 ± 1.2 kg/m3
6649 kPa	1008 ± 1.2 kg/m3
6674.5 kPa	1008 ± 1.2 kg/m3
6679.6 kPa	1008 ± 1.2 kg/m3
6683.5 kPa	1008.1 ± 1.2 kg/m3
6687.7 kPa	1008.1 ± 1.2 kg/m3
6692 kPa	1008.1 ± 1.2 kg/m3
6696.5 kPa	1008 ± 1.2 kg/m3
6700.6 kPa	1008 ± 1.2 kg/m3
6704.6 kPa	1008 ± 1.2 kg/m3
6708.6 kPa	1008 ± 1.2 kg/m3
6713.2 kPa	1008 ± 1.2 kg/m3
6717.2 kPa	1008.1 ± 1.2 kg/m3
6759.5 kPa	1008.1 ± 1.2 kg/m3
6769.5 kPa	1008.2 ± 1.2 kg/m3 and 1008.1 ± 1.2 kg/m3
6769.7 kPa	1008.1 ± 1.2 kg/m3 and 1008 ± 1.2 kg/m3
6769.8 kPa	1008 ± 1.2 kg/m3 and 1008.2 ± 1.2 kg/m3 and 1008.1 ± 1.2 kg/m3
6770 kPa	1008.1 ± 1.2 kg/m3
6770.2 kPa	1008 ± 1.2 kg/m3 and 1008.1 ± 1.2 kg/m3
6770.3 kPa	1008.1 ± 1.2 kg/m3
6770.4 kPa	1008.1 ± 1.2 kg/m3
6770.5 kPa	1008.1 ± 1.2 kg/m3
6770.7 kPa	1008 ± 1.2 kg/m3
6770.9 kPa	1008 ± 1.2 kg/m3 and 1008.1 ± 1.2 kg/m3
